# Columns and labels:
# [1] = test system: GPX4^low NCI-H226 cells; test: Cell viability / cell death (ferroptosis) in NCI-H226 cells; assay type: cell-based, human; details: pretreatment 48 hours (C-Asp, DHO, OA 100 μM; uridine 50 μM), RSL3 4 hours
# Procedure: (§1) Viable cells were measured using Cell Counting Kit-8 (CCK-8, Dojindo) as previously described (Koppula, P., Zhang, Y., Shi, J., Li, W. & Gan, B, J Biol Chem 292, 14240-14249 (2017); Liu, X. & Gan, B, Cell Cycle 15, 3471-3481 (2016)). Briefly, cells were seeded onto 96-well plates at a density of 2×10^4 per well. The next day, cells were treated with GPX4 or DHODH inhibitors for 4 hours. Subsequently, cells exposed to 10 μl CCK-8 reagent (100 μl medium per well) for 1 hour at 37° C., 5% CO2 in an incubator. The absorbance at a wavelength of 450 nm was determined using a FLUOstar Omega microplate reader (BMG Labtech).
# (§2) Cell death was measured by propidium iodide (Roche) staining using a flow cytometer, as previously described (Dai, F., et al., Proc Natl Acad Sci USA 114, 3192-3197 (2017); Zhang, Y., et al., Cancer Res 80, 2243-2256 (2020)). For propidium iodide-staining, cells were seeded at a density of 50% confluence into 12-well plates. The next day, cells were treated with different reagents. To measure cell death, the cells were collected (including floating dead cells), stained with 5 μg/ml propidium iodide and the percentage of the propidium iodide-positive dead cell population was analyzed using the flow cytometer BD Accuri C6 (BD Biosciences) and an FL2 detector. A minimum of 10,000 single cells were analyzed per well and all experiments were carried out at least in triplicate.
# [2] = test system: NCI-H226 cells; test: Intracellular metabolite levels upon supplementation; assay type: in vitro ADME, human; details: for intracellular levels upon supplementation: 100 μM, 48 hours
# Procedure: (§3) Metabolomic analysis was performed as previously described (Liu, X., et al., Nat Cell Biol 22, 476-486 (2020)). Cells were seeded on 35 mm culture plates at a density sufficient to ensure approximately 70-80% confluence at the time of extraction. For metabolic tracer analysis of pyrimidine synthesis, HT-1080 cells were treated with RSL3 and/or Lip-1 for 2 hours and then were shifted to drug-free media containing amide-^15N-glutamine (this time point is defined as 0 hour). Metabolites were extracted at the indicated time points for subsequent analyses. Metabolites were extracted by rapidly aspirating the culture medium and then adding 0.6 mL of an 80% methanol: 20% water mixture at dry ice temperature. The plates were incubated on dry ice for 15 minutes before the cell material was scraped into eppendorf tubes pre-chilled on ice. The cell debris was pelleted by centrifugation at 13,000 RCF for 5 minutes at 4° C. and the supernatant was transferred to a fresh tube and stored on dry ice until analysis. Just prior to analysis, 500 μL of extract was dried under nitrogen gas flow and then resuspended in 100 μL water.
# (§4) The complete platform consists of an Accela 1250 HPLC system, Accela Open Autosampler, MayLab Mistraswitch column oven and Exactive orbitrap mass spectrometer, controlled by the Xcalibur 3.0.63 software package. Chromatography was performed with a Phenomenex Synergi Hydro-RP column (100×2 mm, 2.5 μm particle size). Solvent A is 10 mM tributylamine and […] acetic acid in water; Solvent B is methanol. The gradient is: 0 min, 0% B; 2.5 min, 0% B; 5 min, 20% B; 7.5 min, 20% B; 13 min, 55% B; 15.5 min, 95% B; 18.5 min, 95% B; 19 min, 0% B; 25 min, 0% B. The injection volume was 10 μL. The column temperature was set to 40° C., and the flow rate was 200 μL/min. The Exactive was operated in negative ionization mode with an electrospray ionization interface. The instrument parameters are as follows: sheath gas flow rate 30 (arbitrary units), aux gas flow rate 10 (arbitrary units), sweep gas flow rate 3 (arbitrary units), spray voltage 3 kV, capillary temperature 325° C., capillary voltage −25 V, tube lens voltage −50 V. The scan range was set to 80-1000 m/z, with a maximum inject time of 250 ms, resolution of 100,000 at 1 Hz, and AGC (automatic gain control) target 1E6. The data were analyzed using the MAVEN software suite57 with signal intensity determined as the Peak Area (Top). For metabolic labeling experiments, the data were corrected to account for the natural abundance of nitrogen-15 using IsoCorrectoR (Heinrich, P., et al., Sci Rep 8, 17910 (2018)).
# [3] = test system: GPX4^high and GPX4^low cancer cell lines; test: Cell viability in panel of GPX4^high and GPX4^low cancer cell lines; assay type: cell-based, human; details: supplementation 100 μM 48 hours, RSL3 4 hours
# Procedure: as §1
# [4] = test system: multiple cancer cell lines; test: Global metabolomic analysis; assay type: cell-based, human; details: short-term (2-hour) treatment, 10 μM
# Procedure: as §3, §4
# [5] = test system: DHODH KO HT-1080 cells; test: Cell viability / cell death (ferroptosis) in DHODH KO HT-1080 cells; assay type: cell-based, human; details: for protection against GPX4 inhibition (RSL3 or ML162)-induced ferroptosis: DHODH KO, pretreatment 10 μM, 24 hours
# Procedure: Knockout of DHODH, ACSL4 and COQ2 in human cell lines was performed using single guide RNAs (sgRNAs) and doxycycline (DOX)-inducible CRISPR-Cas9 expression system as described in our recent publication (Lee, H., et al., Nature cell biology 22, 225-234 (2020)). sgRNAs were cloned into the lentiviral lentiGuide vector. LentiGuide clones were transfected into HEK293T cells with psPAX2 packaging plasmid and pMD2.G expressing plasmid. Cells were infected with lentivirus with 0.8 μg/ml polybrene, selected with puromycin (1 μg/ml, InvivoGen), blasticidin (2 μg/ml, InvivoGen) or hygromycin B (2 μg/ml, InvivoGen) for 3 days and then single cells were sorted into 96-well plates. Single cells were maintained in DMEM with 10% (v/v) FBS and 1% (v/v) penicillin/streptomycin at 37° C. in an incubator with 20% O2 and 5% CO2 for 3-4 weeks and each colony was verified by western blot to confirm the target gene deletion. To generate cell lines with DOX-inducible CRISPR-Cas9-mediated gene deletion, cells were infected with lentivirus, selected with puromycin (1 μg/ml, InvivoGen), blasticidin (2 μg/ml, InvivoGen) or hygromycin B (2 μg/ml, InvivoGen) for 2 days and then single cells were sorted into 96-well plates. Once cell lines were established, 1 μg/ml of DOX (Sigma-Aldrich) was added to the media to induce target gene deletion for 48 hours after selection; then cells were cultured in DOX-free media for subsequent analyses.
# as §1, §2
# [6] = test system: GPX4^high HT-1080 cells; test: Cell viability / cell death (ferroptosis) in HT-1080 cells; assay type: cell-based, human; details: 24 hours; for protection against GPX4 inhibition (RSL3 or ML162)-induced ferroptosis: DHODH WT, pretreatment 10 μM
# Procedure: Briefly, cells were seeded onto 96-well plates at a density of 2×10^4 per well. The next day, cells were treated with GPX4 or DHODH inhibitors for 4 hours. Subsequently, cells exposed to 10 μl CCK-8 reagent (100 μl medium per well) for 1 hour at 37° C., 5% CO2 in an incubator. The absorbance at a wavelength of 450 nm was determined using a FLUOstar Omega microplate reader (BMG Labtech).
# as §2, with “For” for “Cell death was measured by propidium iodide (Roche) staining using a flow cytometer, as previously described (Dai, F., et al., Proc Natl Acad Sci USA 114, 3192-3197 (2017); Zhang, Y., et al., Cancer Res 80, 2243-2256 (2020)). For”
# [7] = test system: DHODH KO HT-1080 cells; test: Mitochondrial lipid peroxidation (mito-BODIPY) in DHODH KO HT-1080 cells; assay type: cell-based, human; details: pretreatment 10 μM, 24 hours
intracellular levels upon supplementation [2],Compound,effect of supplementation on cellular sensitivity to GPX4 inhibition (RSL3) [1],protection against GPX4 inhibition (RSL3 or ML162)-induced ferroptosis [6],protection against GPX4 inhibition (RSL3 or ML162)-induced ferroptosis [5],suppression of GPX4 inhibitor-induced mitochondrial lipid peroxidation [7],other results
only moderately increased,"NC(=O)N[C@@H](CC(=O)O)C(=O)O [C-Asp, N-Carbamoyl-L-aspartate]",did not affect ferroptosis sensitivity,–,–,–,cell permeability [2]: largely impermeable to cells
drastically increased,"O=C1CC(C(=O)O)NC(=O)N1 (stereo not shown) [DHO, dihydroorotate]",protected cells from,–,–,–,protecting (DHO) or sensitizing (OA) effect in GPX4^low versus GPX4^high cell lines [3]: much more pronounced
–,COc1ccc(N(C(=O)CCl)C(C(=O)NCCc2ccccc2)c2cccs2)cc1Cl (stereo not shown) [ML162],–,–,–,–,C-Asp level [4]: marked depletion; uridine level [4]: concomitant accumulation; sensitization by DHODH deletion to compound-induced lipid peroxidation and ferroptosis ([5]; uridine-supplemented conditions): markedly sensitized
–,"CC1(C)CCCC(C)(C)N1[O] [TEMPO, 2,2,6,6-tetramethyl-1-piperidinyloxy]",–,rescued,rescued,could be suppressed,–
–,"CC1(C)CC(NC(=O)C[P+](c2ccccc2)(c2ccccc2)c2ccccc2)CC(C)(C)N1[O] [mito-TEMPO, 2-(2,2,6,6-tetramethylpiperidin-1-oxyl-4-ylamino)-2-oxoethyl) triphenylphosphonium chloride]",–,–,provided substantial protection,could be suppressed,–
–,"COC1=C(OC)C(=O)C(CCCCCCCCCC[P+](c2ccccc2)(c2ccccc2)c2ccccc2)=C(C)C1=O [mitoQ, [10-(4,5-dimethoxy-2-methyl-3,6-dioxo-1,4-cyclohexadien-1-yl)decyl] triphenyl-phosphonium, monomethanesulfonate]",–,provided limited protection,–,–,–
–,"COc1c(O)c(C)c(CCCCCCCCCC[P+](c2ccccc2)(c2ccccc2)c2ccccc2)c(O)c1OC.CS(=O)(=O)[O-] [mitoQH2, [10-(2,5-dihydroxy-3,4-dimethoxy-6-methylphenyl)decyl] triphenyl-phosphonium, monomethanesulfonate]",–,provided limited protection,significantly protected,significantly protected,–
–,N-benzyloxycarbonyl-val-ala-asp(o-me) fluoromethyl ketone [Z-VAD-FMK],–,–,–,–,"rescue of DHODH inhibition-induced cell death ([6]; BQR, pretreatment Lip-1 or ZVF 10 μM): the opposite was observed"

Compound,intracellular levels upon supplementation [2],effect of supplementation on cellular sensitivity to GPX4 inhibition (RSL3) [1],protection against GPX4 inhibition (RSL3 or ML162)-induced ferroptosis [6],protection against GPX4 inhibition (RSL3 or ML162)-induced ferroptosis [5],suppression of GPX4 inhibitor-induced mitochondrial lipid peroxidation [7],other results
"O=C(O)c1cc(=O)[nH]c(=O)[nH]1 [OA, orotate]",drastically increased,sensitized cells to,–,–,–,protecting (DHO) or sensitizing (OA) effect in GPX4^low versus GPX4^high cell lines [3]: much more pronounced

# Reference: patent US20240148757A1, “USE OF DIHYDROOROTATE DEHYDROGENASE (DHODH) INHIBITORS TO TARGET FERROPTOSIS IN CANCER THERAPY” (BOARD OF REGENTS, THE UNIVERSITY OF TEXAS SYSTEM, priority 2021, published 2024)
